Calls of active or inactive are those of the source. The rule behind the calls is not given here.
Key:
[1] = Partition coefficient (logP); assay type: physicochemical; conditions: octanol/water
Plasmodium berghei [2] = assay: Antimalarial activity against Plasmodium berghei.; assay type: functional, organism-based
Plasmodium berghei [3] = assay: Antimalarial activity against Plasmodium berghei; Active; assay type: functional, organism-based

SMILES | logP ([1]; read-out: logP) | logP [1] | Activity (Plasmodium berghei [2]) | Activity (Plasmodium berghei [3])
CCCCCCCCCCCCCCCC/N=C1\C=C(O)c2ncccc2C1=O | 7.8 | – | Not toxic | –
COc1ccc(NC2=CC(=O)C(=O)c3ccccc32)cc1 | 1.9 | – | – | Active
CCCCCCCCCCCC1=C(O)C(=O)C=C(O)C1=O [EMBELIN] | 5.04 | – | Not toxic | –
O=C1C(=O)c2cccnc2C(Nc2ccccc2)=C1Cl | 1.3 | – | Not toxic | –
CCN(CC)C1=CC(=O)C(=O)c2ccccc21 | 3.28 | – | – | Active
Cc1ccc2c(c1)C(=O)C(CCC(C)C)=C(O)C2=O | 4.26 | – | – | Active
NC1=CC(=O)c2ncccc2/C1=N\c1ccc(Cl)cc1 | 2.5 | – | Not toxic | –
CN(C)CCCN(C1=CC(=O)C(=O)c2ccccc21)c1ccccc1 | 3.4 | – | – | Active
CCCCCN(CCCCC)CCC/N=C1/C=C(O)C(=O)c2ccccc21 | 5.47 | – | – | Active
O=C(CCC1CCCCC1)C1=CC(=O)c2ccccc2C1=O | 4.1 | – | Not toxic | –
CCCC(C)COC1=CC(=O)C(=O)c2ccccc21 (stereo unspecified) | 3.38 | – | Not toxic | –
CC(C)CCC1=C(N)C(=O)c2ccccc2C1=O | 4.37 | – | Not toxic | –
CCCCCCCCCCCCCCSC1=C(O)C(=O)c2cccnc2C1=O | 8.62 | – | – | Active
CC1=C(CCC(C)C)C(=O)c2ccccc2C1=O | 4.69 | – | Not toxic | –
CCN(CC)CCCC/N=C1/C=C(O)C(=O)c2ccccc21 | 3.79 | – | – | Active
O=C1C=C(Nc2ccc(Cl)cc2)/C(=N/c2ccc(Cl)cc2)c2cccnc21 | 5.6 | – | Not toxic | –
Cc1ccc(/N=C2/C(N)=CC(=O)c3ncccc32)cc1C | 2.5 | – | Not toxic | –
CCOC1=CC(=O)C(=O)c2ccccc21 | 1.2 | – | Not toxic | –
CCCCCC/N=C1/C=C(O)C(=O)c2ccc(C)nc21 | 1.5 | – | Not toxic | –
Cc1ccc(/N=C2/C(Nc3ccc(C)c(C)c3)=CC(=O)c3ncccc32)cc1C | 5.6 | – | Not toxic | –
O=C1C=C(NCCCCC2CCCCC2)c2ccccc2C1=O | 6.11 | – | – | Active
NC1=CC(=O)C(=O)c2cccnc21 | 1.2 | – | Not toxic | –

The next lines start with results.

logP ([1]; read-out: logP) | logP [1] | SMILES | Activity (Plasmodium berghei [2]) | Activity (Plasmodium berghei [3])
6.47 | – | CCCCCCCCCCC1=C(O)C(=O)c2cc(OC)ccc2C1=O | Not toxic | –
3.38 | – | CCCCCOC1=CC(=O)C(=O)c2ccccc21 | Not toxic | –
5.06 | – | CCCCCCCCCC1=C(O)C(=O)c2sccc2C1=O | Not toxic | –
5.31 | – | O=C1C(=O)c2ccccc2C(O)=C1CCCC1CCCCC1 | – | Active
0.2 | – | CC1=C(O)C(=O)c2ccccc2C1=O | Not toxic | –
5.93 | – | O=C1C(=O)C2=C(CCCC2)C(O)=C1CCCC1CCCCC1 | Not toxic | –
1.5 | – | NC1=CC(=O)c2ncccc2/C1=N\c1ccccc1 | Not toxic | –
3.87 | – | CC(C)CCC1=C(O)C(=O)c2ccccc2C1=O | – | Active
4.64 | – | O=C1C(=O)c2ccc(O)cc2C(O)=C1CCCC1CCCCC1 | Not toxic | –
4.5 | – | CCOC(=O)c1ccc(/N=C2/C(Nc3ccc(C(=O)OCC)cc3)=CC(=O)c3ncccc32)cc1 | Not toxic | –
4.26 | – | Cc1ccc2c(c1)C(=O)C(O)=C(CCC(C)C)C2=O | – | Active
1.5 | – | COc1ccc(/N=C2/C(N)=CC(=O)c3ncccc32)cc1 | Not toxic | –
6.47 | – | CCCCCCCCCCC1=C(O)C(=O)c2ccc(OC)cc2C1=O | Not toxic | –
4 | – | CC(C)CCC1=CC(=O)c2ccccc2C1=O | Not toxic | –
1.5 | – | Cc1ccc(NC2=C(Cl)C(=O)C(=O)c3cccnc32)cc1 | Not toxic | –
7.17 | – | CCCCCCCCCCC1=C(O)C(=O)c2ccc(Br)cc2C1=O | Not toxic | –
1.5 | – | CCCC/N=C1\C=C(O)c2ncccc2C1=N | Not toxic | –
6.5 | – | O=C1C(=O)c2ncccc2C(O)=C1CCCCCCCCC1CCCCC1 | – | Active
6.62 | – | CCCCCCCCCCCCSC1=C(O)C(=O)c2cccnc2C1=O | – | Active
6.69 | – | O=C1C(=O)c2cc(Cl)ccc2C(O)=C1CCCCC1CCCCC1 | Not toxic | –
7.5 | – | CCCCCCCCCCCCCCCC1=C(O)C(=O)c2cccnc2C1=O | – | Active
4.64 | – | CC(C)CCC1=C(Cl)C(=O)c2ccccc2C1=O | Not toxic | –
6.63 | – | O=C1C(=O)c2c(ccc3ccccc23)C(O)=C1CCCC1CCCCC1 | Not toxic | –
4.5 | – | COc1ccc(/N=C2/C(Nc3ccc(OC)cc3)=CC(=O)c3ncccc32)cc1 | Not toxic | –
– | 9.62 | CCCCCCCCCCCCCCCCCCSC1=C(O)C(=O)c2cccnc2C1=O | – | Active
7.81 | – | O=C1C(O)=C(CCCCCCCCC2CCCCC2)C(=O)c2ccccc21 [MENOCTONE] | – | Active

— ChEMBL document CHEMBL1121445, “Structure-activity analyzed by pattern recognition: the asymmetric case” (J Med Chem, 1980)
